Data from patent US8222267B2 (priority 2009, dated 2012).

Key:
[1] = Pharmacokinetics after single oral co-administered dose of morphine and oxycodone (about 3:2) in healthy subjects; conditions: for AUC0-∞ (dose adjusted) / Cmax: healthy subjects, n = 18
Protocol: Values for the observed maximum plasma concentration (Cmax), total area under the plasma concentration-time curve (AUC0-∞) and the time to maximum plasma concentration (Tmax) were determined.

[2] = Open-label pilot study, adverse events / safety of MOXDUO, PERCOCET and preceding IV PCA morphine

SMILES	AUC0-∞ (dose adjusted) ([1]; single oral co-administered dose morphine/oxycodone 3 mg/2 mg)	AUC0-∞ (dose adjusted) ([1]; single oral co-administered dose morphine/oxycodone 12 mg/8 mg)	Tmax ([1]; human, plasma, po)	Cmax ([1]; human, plasma, po, single oral co-administered dose morphine/oxycodone 3 mg/2 mg)	Cmax ([1]; human, plasma, po, single oral co-administered dose morphine/oxycodone 12 mg/8 mg)	Dose proportionality of plasma levels ([1]; single-dose combination, 3 mg/2 mg to 12 mg/8 mg dose range, dose-normalized Cmax and AUC0-∞ within 80-125% limits)	Overall incidence of nausea, pruritus, constipation, and dizziness ([2]; during IV PCA morphine use vs same time period after first dose of study medication)	Subjects with moderate or severe nausea ([2]; while on IV PCA morphine, before study medication)
COc1ccc2c3c1O[C@H]1C(=O)CC[C@@]4(O)[C@@H](C2)N(C)CC[C@]314 [Oxycodone, oxycodone]	9.62 ng·h/mL/mg	9.62 ng·h/mL/mg	1 h	4.9 ng/mL	17.8 ng/mL	increase linearly in a dose-proportionate manner		
CN1CC[C@]23c4c5ccc(O)c4O[C@H]2[C@@H](O)C=C[C@H]3[C@H]1C5 [Morphine, morphine]							higher	25%
